From patent publication US20160355475A1, “NOVEL INDOLE DERIVATIVE COMPOUND AND PHARMACEUTICAL COMPOSITION COMPRISING THE SAME” (CHONG KUN DANG PHARMACEUTICAL CORP., priority 2014, published 2016)

Tests used:
[1] = target: T1, HDAC1 (Homo sapiens, UniProt Q13547); assay: HDAC1 enzyme activity inhibition (HDAC1 fluorimetric drug discovery assay kit); format: biochemical; settings: 37° C., 60 minutes; tested at 100, 1000 and 10000 nM
T1 construct: purchased Enzolifesciences BML-AK511
Experimental: (§1) 1. Experiment on Activities in HDAC Enzymes (HDAC1 and HDAC6)
(§2) Assays were performed using a HDAC1 fluorimetric drug discovery assay kit (Enzolifesciences: BML-AK511) and a HDAC6 human recombinant (Calbiochem: 382180). The assay mixture of the kit was treated with each of the compounds of the Examples at concentrations 100, 1000 and 10000 nM for HDAC1 assay and 0.1, 1, 10, 100 and 1000 nM for HDAC6 assay. The treated assay mixture was allowed to react at 37° C. for 60 minutes, and then was treated with a developer and allowed to stand at 37° C. for 30 minutes, followed by quantification of the fluorescence. In Table 17, lower HDAC6 values (μM) indicate higher HDAC6 inhibitory activities of the compounds. Also, because selective HDAC6 inhibitors should not inhibit HDAC1 (μM), higher HDAC1 values indicate higher HDAC6 selectivity of the compounds.

[2] = target: T2, HDAC6 human recombinant (Homo sapiens, UniProt Q9UBN7); assay: HDAC6 enzyme activity inhibition (fluorimetric, in vitro); format: biochemical; settings: 37° C., 60 minutes; tested at 0.1, 1, 10, 100 and 1000 nM
T2 construct: purchased Calbiochem 382180
T2 sequence (Q9UBN7 1-1215): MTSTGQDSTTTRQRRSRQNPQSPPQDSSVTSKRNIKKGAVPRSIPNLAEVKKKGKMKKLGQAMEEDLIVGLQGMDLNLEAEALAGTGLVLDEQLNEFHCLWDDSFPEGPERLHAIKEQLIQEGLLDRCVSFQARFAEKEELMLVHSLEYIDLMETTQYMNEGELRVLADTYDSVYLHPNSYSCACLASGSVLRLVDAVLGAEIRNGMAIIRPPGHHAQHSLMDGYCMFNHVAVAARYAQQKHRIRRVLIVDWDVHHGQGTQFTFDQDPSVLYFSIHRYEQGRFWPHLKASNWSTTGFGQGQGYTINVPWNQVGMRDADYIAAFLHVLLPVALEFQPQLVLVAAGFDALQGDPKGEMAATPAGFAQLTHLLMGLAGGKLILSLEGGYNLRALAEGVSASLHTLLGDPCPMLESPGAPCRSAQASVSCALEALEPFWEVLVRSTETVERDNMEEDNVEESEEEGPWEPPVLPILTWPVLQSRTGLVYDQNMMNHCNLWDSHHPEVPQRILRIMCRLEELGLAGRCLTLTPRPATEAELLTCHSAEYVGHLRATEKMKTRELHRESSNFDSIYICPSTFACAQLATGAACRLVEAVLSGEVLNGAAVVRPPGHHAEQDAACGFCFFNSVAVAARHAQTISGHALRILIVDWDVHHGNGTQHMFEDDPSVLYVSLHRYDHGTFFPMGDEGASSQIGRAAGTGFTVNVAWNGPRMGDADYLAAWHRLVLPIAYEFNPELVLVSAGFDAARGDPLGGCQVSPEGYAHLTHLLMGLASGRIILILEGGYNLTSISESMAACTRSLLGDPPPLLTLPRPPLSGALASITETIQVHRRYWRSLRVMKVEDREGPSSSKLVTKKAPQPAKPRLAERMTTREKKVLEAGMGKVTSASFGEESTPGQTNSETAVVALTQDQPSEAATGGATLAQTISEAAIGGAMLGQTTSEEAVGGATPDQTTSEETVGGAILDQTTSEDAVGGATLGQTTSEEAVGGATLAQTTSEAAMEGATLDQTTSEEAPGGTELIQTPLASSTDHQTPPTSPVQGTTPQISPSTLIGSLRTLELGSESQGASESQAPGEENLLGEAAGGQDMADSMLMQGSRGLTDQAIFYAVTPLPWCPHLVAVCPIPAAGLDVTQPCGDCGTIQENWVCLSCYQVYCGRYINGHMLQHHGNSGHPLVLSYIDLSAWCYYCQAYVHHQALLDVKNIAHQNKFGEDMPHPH
Experimental: as §1, §2

T1 sequence (Q13547 whole entry): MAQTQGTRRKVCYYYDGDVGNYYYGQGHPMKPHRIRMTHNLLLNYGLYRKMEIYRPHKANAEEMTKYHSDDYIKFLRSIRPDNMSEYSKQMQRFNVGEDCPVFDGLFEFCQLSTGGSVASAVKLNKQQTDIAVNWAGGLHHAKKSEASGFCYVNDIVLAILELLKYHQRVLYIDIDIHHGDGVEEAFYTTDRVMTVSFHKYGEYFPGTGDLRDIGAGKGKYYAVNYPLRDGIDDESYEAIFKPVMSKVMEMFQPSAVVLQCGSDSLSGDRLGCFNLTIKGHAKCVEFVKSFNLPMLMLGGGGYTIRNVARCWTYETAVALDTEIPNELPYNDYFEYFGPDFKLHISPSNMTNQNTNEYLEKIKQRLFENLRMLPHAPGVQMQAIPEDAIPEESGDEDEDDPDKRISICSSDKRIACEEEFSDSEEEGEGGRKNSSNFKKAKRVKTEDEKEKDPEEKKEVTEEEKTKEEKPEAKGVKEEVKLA

Structure (SMILES) | IC50 [1] [nM] | IC50 [2] [nM]
CC(=O)N1CCC(F)(CN2CCC(Cn3c(C)c(Cc4ccc(C(=O)NO)cc4)c4ccccc43)CC2)CC1 [Compound 612, 4-((1-((1-((1-acetyl-4-fluoropiperidin-4-yl)methyl)piperidin-4-yl)methyl)-2-methyl-1H-indol-3-yl)methyl)-N-hydroxybenzamide] | 9100 | 61
Cc1c(Cc2ccc(C(=O)NO)cc2)c2ccccc2n1CC1CCN(CC2(F)CCN(CC(C)(C)O)CC2)CC1 [Compound 613, 4-((1-((1-((4-fluoro-1-(2-hydroxy-2-methylpropyl)piperidin-4-yl)methyl)piperidin-4-yl)methyl)-2-methyl-1H-indol-3-yl)methyl)-N-hydroxybenzamide] | 6740 | 69
Cc1c(Cc2ccc(C(=O)NO)cc2)c2ccccc2n1CC1CCN(CC2(F)CCN(CC(C)(C)F)CC2)CC1 [Compound 615, 4-((1-((1-((4-Fluoro-1-(2-fluoro-2-methylpropyl)piperidin-4-yl)methyl)piperidin-4-yl)methyl)-2-methyl-1H-indol-3-yl)methyl)-N-hydroxybenzamide] | > 10000 | 7
Cc1c(Cc2ccc(C(=O)NO)cc2)c2ccccc2n1CC1CCN(Cc2cc(F)c(F)cc2F)CC1 [Compound 619, N-hydroxy-4-((2-methyl-1-((1-(2,4,5-trifluorobenzyl)piperidin-4-yl)methyl)-1H-indol-3-yl)methyl)benzamide] | > 10000 | 770
Cc1c(Cc2ccc(C(=O)NO)cc2)c2ccccc2n1CC1CCN(Cc2ccccc2F)CC1 [Compound 620, 4-((1-((1-(2-Fluorobenzyl)piperidin-4-yl)methyl)-2-methyl-1H-indol-3-yl)methyl)-N-hydroxybenzamide] | > 10000 | 306
Cc1c(Cc2ccc(C(=O)NO)cc2)c2ccccc2n1CC1CCN(Cc2ccccn2)CC1 [Compound 623, N-hydroxy-4-((2-methyl-1-((1-(pyridin-2-ylmethyl)piperidin-4-yl)methyl)-1H-indol-3-yl)methyl)benzamide] | 1480 | 28
CC(C)(F)CN1CCC(Cn2c(-c3ccncc3)c(Cc3ccc(C(=O)NO)cc3)c3ccccc32)CC1 [Compound 624, 4-((1-((1-(2-Fluoro-2-methylpropyl)piperidin-4-yl)methyl)-2-(pyridin-4-yl)-1H-indol-3-yl)methyl)-N-hydroxybenzamide] | 5010 | 107
CC(C)(F)CN1CCC(Cn2c(-c3cncnc3)c(Cc3ccc(C(=O)NO)cc3)c3ccccc32)CC1 [Compound 625, 4-((1-((1-(2-Fluoro-2-methylpropyl)piperidin-4-yl)methyl)-2-(pyrimidin-5-yl)-1H-indol-3-yl)methyl)-N-hydroxybenzamide] | 5720 | 71
CC(C)(F)CN1CCC(Cn2c(-c3cc(F)cc(F)c3)c(Cc3ccc(C(=O)NO)cc3)c3ccccc32)CC1 [Compound 626, 4-((2-(3,5-Difluorophenyl)-1-((1-(2-fluoro-2-methylpropyl)piperidin-4-yl)methyl)-1H-indol-3-yl)methyl)-N-hydroxybenzamide] | > 10000 | 587
Cc1c(Cc2ccc(C(=O)NO)cc2)c2ccccc2n1CC1CCN(Cc2cccc(F)c2)CC1 [Compound 631, 4-((1-((1-(3-Fluorobenzyl)piperidin-4-yl)methyl)-2-methyl-1H-indol-3-yl)methyl)-N-hydroxybenzamide] | > 10000 | 1360
Cc1c(Cc2ccc(C(=O)NO)cc2)c2ccccc2n1CC1CCN(Cc2cccnc2)CC1 [Compound 632, N-hydroxy-4-((2-methyl-1-((1-(pyridin-3-ylmethyl)piperidin-4-yl)methyl)-1H-indol-3-yl)methyl)benzamide] | 1790 | 63
Cc1c(Cc2ccc(C(=O)NO)cc2)c2ccccc2n1CCN1C[C@@H](C)N(CC(C)(C)F)[C@@H](C)C1 [Compound 633, 4-((1-(2-((3S,5R)-4-(2-fluoro-2-methylpropyl)-3,5-dimethylpiperazin-1-yl)ethyl)-2-methyl-1H-indol-3-yl)methyl)-N-hydroxybenzamide] | 1760 | 75
